The source of these data is patent publication US20260108641A1, “PHYTIC ACID-BASED TERNARY COMPLEX BIOMIMETIC NANOMATERIAL, AND PREPARATION METHOD AND USE THEREOF” (THE SECOND HOSPITAL OF TIAN JIN MEDICAL UNIVERSITY, priority 2023, published 2026).

Structures are written as SMILES.

Data set [1] relates to PC-3 tumor-bearing mouse model. Briefly: In vivo tumor inhibitory effect. Also on record: species or system mice. The note with it: day 14 after tail vein injection, controls PBS, CDDP, PA-Mn-BSA.
Experimental: A PC-3 tumor-bearing mouse model was constructed. […] Tumor size was measured every other day for 14 consecutive days after injection to observe the tumor growth inhibitory effect in different groups. Tumors were dissected and collected from the mice on day 14 for size observation.
Data set [2] can be described thus: Safety evaluation, blood biochemical analysis. Format: in vivo, Kunming mice. The following applies: 24 hours after tail vein injection, versus PBS group. The protocol: Normal Kunming mice were selected, and PBS, CDDP, PA-Mn-BSA and PA-Mn/Pt-BSA were separately injected via the tail vein of the mice. Blood biochemical analysis was performed 24 hours later.

In the case of `[NH2][Pt]([NH2])([Cl])[Cl]` [CDDP, cisplatin], the “tumor volume of dissected tumors” value in data set [1] is “smaller tumor volume than the PBS group”. Also, in data set [2], the “level of alanine transaminase (ALT)” value is “significantly higher”, the “level of aspartate transaminase (AST)” value is “significantly higher”, the “level of blood urea nitrogen (BUN)” value is recorded as “significantly higher” and the “level of creatinine (CRE)” value was “significantly higher”.
